Data from US20240294465A1, “NOVEL ANTI-FIBROTIC DRUGS” (HELMHOLTZ ZENTRUM MUNCHEN - DEUTSCHES FORSCHUNGSZENTRUM FUR …, priority 2021, published 2024).

Experiments:
[1] = test system: collagen I, collagen V, fibulin 1, fibronectin, αSMA protein in phLFs; assay: Western blotting of ECM proteins and αSMA in phLFs (lysates and medium supernatants); type: cell-based, human
Description: Cells were scraped off the plastic dish directly into 200 μl ice-cold RIPA buffer containing 1× Roche complete mini protease inhibitor cocktail. After incubating the samples for 30 minutes on ice, insoluble material was removed by centrifugation at 14.000 g for 15 minutes at 4° C. and the supernatant was further processed. Samples were mixed with 50 mM Tris-HCl, pH 6.8, 100 mM DTT, 2% SDS, 1% bromphenol blue, and 10% glycerol, and proteins were separated using standard SDS-10% PAGE. For immunoblotting, proteins were transferred to PVDF (Millipore (Billerica, MA, (USA)), 0.45 μm or 0.2 μm) membranes, which were blocked with 5% milk in TBST (0.1% Tween 20 in TBS) and incubated with primary, followed by HRP-conjugated secondary antibodies over night at 4° C. and at room temperature for 1 hour, respectively. For immunoblotting the following primary antibodies were used: monoclonal mouse anticollagen type 5 (1 mg/mL) from […] (Cat #sc-166155), polyclonal rabbit anti-collagen type 3 (1 mg/mL) from Rockland (Cat #600-401-105), polyclonal rabbit anti-collagen type 1 (1 mg/mL) from Rockland (Cat #600-401-103-0.5), monoclonal mouse anti-fibulin 1 (1 mg/mL) from SantaCruz (Cat #sc-25281), polyclonal rabbit anti-fibronectin (1 mg/mL) from SantaCruz (Cat #sc-9068), and monoclonal mouse anti-p-actin-peroxidase (AC-15, Sigma, 1:10000). Goat anti-rabbit and goat anti-mouse IgG conjugated to horseradish peroxidase (Cell Signaling, 1:10000) were applied as secondary antibodies. CXCL/IL-8 concentrations were determined using Human IL-8/CXCL8 DuoSet ELISA (DY208-05) according to the manufacturer's protocol.

[2] = test system: ECM deposition of collagen I, collagen V and fibulin 1 by phLFs+TGFβ1; assay: 3D ECM deposition assay (collagen I, collagen V, fibulin 1), dose-response and live imaging; type: cell-based, human; settings: phLFs+TGFβ1+EDHB
Description: phLFs were cultured in DMEM F-12 medium with 20% fetal bovine serum (FBS) and antibiotic supplement as mentioned above. Cells were seeded with 6000 cells/well in 384-well CellCarrier plates (Perkin Elmer, Cat #6007550). Following overnight incubation, cells were starved in serum-reduced medium (1% FBS with 0.1 mM 2-phosphoascorbate (Sigma, Cat #49752)) for 24 h. Afterwards, cells were treated with TGFβ1 (1 ng/ml) or vehicle, and additionally small molecules or appropriate vehicle controls were added. […] Fluorescenceconjugation of the collagen type 1 antibody was done by using the AlexaFluor-555 Protein Labeling Kit (Invitrogen, Cat #A20174) according to manufacturer's instructions. […]
Following fixation, the automated imaging was achieved by using aconfocal laser scanning microscope (LSM710, Zeiss) with automated focus detection for three-dimensional image acquisition (1024 px×1024 px×9 px which equals a dimension of 1417 μm×1417 μm×16 μm). For post-acquisition analysis images were imported into IMARIS software (Bitplane) and volume detection or alternatively quantification of the mean fluorescence intensity, as well as Hoechst-stained cell nuclei were automatically counted by using Imaris' spot detection algorithm. […]

[3] = test system: TGFβ1-induced fibulin-1 ECM deposition in primary human lung IPF-fibroblasts (phLFs); assay: Assessing N23P activity in inhibiting ECM deposition in IPF-fibroblasts (fibulin-1 MFI); type: cell-based; settings: for inhibition at 10 µM: Homo sapiens, 72 h, TGFβ1 1 ng/ml, MFI, one or two different IPF-phLFs (n=1-2)
Description: phLFs were cultured in DMEM F-12 medium with 20% fetal bovine serum (FBS) and antibiotic supplement as mentioned above. Cells were seeded with 6000 cells/well in 384-well CellCarrier plates (Perkin Elmer, Cat #6007550). Following overnight incubation, cells were starved in serum-reduced medium (1% FBS with 0.1 mM 2-phosphoascorbate (Sigma, Cat #49752)) for 24 h. Afterwards, cells were treated with TGFβ1 (1 ng/ml) or vehicle, and additionally small molecules or appropriate vehicle controls were added. After 72 h of incubation, medium was changed for starving medium with 1 μg/mL AlexaFluor-488 fluorophore conjugated anti-collagen-type-5 antibodies (SantaCruz, Clone C-5, Cat #sc-166155 AF488), 0.66 μg/mL AlexaFluor-555 fluorophore conjugated anti-collagen-type-1 antibodies (Rockland, Cat #600-401-103-0.1), and 1 μg/mL AlexaFluor-637 fluorophore conjugated anti-fibulin 1 antibodies (SantaCruz, Clone C-5, Cat #sc-25281 AF647) and 1 μg/mL Hoechst H33342 (Sigma). Fluorescenceconjugation of the collagen type 1 antibody was done by using the AlexaFluor-555 Protein Labeling Kit (Invitrogen, Cat #A20174) according to manufacturer's instructions. Labeling efficacy was controlled by photometrical means.
Following four hours of incubation, cells were washed three times with PBS and fixed with paraformaldehyde (PFA). For automated liquid handling in 384 well plates, an INTEGRA Assist Plus (INTEGRA, Zizers, Switzerland) equipped with an INTEGRA Viaflo 1I pipette (INTEGRA, Zizers, Switzerland, Cat #4642), 125 μL GripTips™ pipette tips (INTEGRA, Zizers, Switzerland, Cat #6464) and sterile reagent reservoirs (INTEGRA, Cat #4311) were applied. All automated pipetting steps with the INTEGRA Assist Plus were performed at 9.5 μL/s in order to ensure proper integrity and attachment of the deposited ECM to the culturing surface within the wells of the 384-well plates. During cell seeding the automated liquid handling was performed at 89.3 μL/s. Removal of liquids from the well-plates was done by manually inverting the plates.
Following fixation, the automated imaging was achieved by using aconfocal laser scanning microscope (LSM710, Zeiss) with automated focus detection for three-dimensional image acquisition (1024 px×1024 px×9 px which equals a dimension of 1417 μm×1417 μm×16 μm). For post-acquisition analysis images were imported into IMARIS software (Bitplane) and volume detection or alternatively quantification of the mean fluorescence intensity, as well as Hoechst-stained cell nuclei were automatically counted by using Imaris' spot detection algorithm.
Cells were seeded with 6000 cells/well in 384-well CellCarrier plates. After overnight incubation, cells were starved in serum-reduced medium (1% FBS with 0.1 mM 2-phosphoascorbate for 24 h). Then, phLFs were treated with TGFβ1 (1 ng/ml) or vehicle, and incubated together with synthesized N23Ps (10 μM) or appropriate vehicle controls. After 72 h of incubation, medium was changed for starvation medium with 1 μg/mL AlexaFluor-637 fluorophore conjugated anti-fibulin 1 antibodies (SantaCruz, Clone C-5, Cat #sc-25281 AF647) and 1 μg/mL Hoechst H33342 (Sigma). Following four hours of incubation, cells were washed three times with PBS and fixed with paraformaldehyde (PFA). Following fixation, the automated imaging was achieved by using a confocal laser scanning microscope (LSM710, Zeiss) with automated focus detection for three-dimensional image acquisition (1024 px×1024 px×9 px which equals a dimension of 1417 μm×1417 μm×16 μm). For post-acquisition analysis images were imported into IMARIS software (Bitplane) and quantified for the mean fluorescence intensity, as well as Hoechst-stained cell nuclei were automatically counted by using Imaris' spot detection algorithm.
Assessment of ECM inhibition I: Mean fluorescence intensity (MFI) values represented the degree of fibulin-1 ECM deposition in three different IPF-phLFs (n=3). […]

[4] = concomitant treatment with TGFβ1

## C[C@H]1CCC/C=C/[C@@H]2C[C@H](O)C[C@H]2[C@H](O)/C=C/C(=O)O1 [BrefeldinA]
[1]; medium supernatants of phLFs
  secretion of collagen I and fibronectin: inhibited the secretion

## CCOC(=O)c1ccc(O)c(O)c1 [EDHB, Ethyl-3,4-dihydroxy-benzoate]
[2]
  ECM deposition of collagen I, collagen V and fibulin 1: inhibits the ECM deposition
[1]; [4]
  expression of intracellular collagen I, collagen V and fibulin 1: statistically significant suppression
  secreted collagen I: significant suppression

## CCCCOc1c(NC(=O)/C=C/c2ccc3[nH]ccc3c2)ccc(F)c1F [Example 163, (E)-N-(2-butoxy-3,4-difluorophenyl)-3-(1H-indol-5-yl)acrylamide]
[3]
  inhibition at 10 µM: 20 to 60%

## CCCCOc1ccccc1NC(=O)/C=C/c1ccc2nonc2c1 [Example 166, (E)-3-(benzo[c][1,2,5]oxadiazol-5-yl)-N-(2-butoxyphenyl)acrylamide]
[3]
  inhibition at 10 µM: 20 to 60%

## C#CCOc1ccc(/C=C/C(=O)Nc2ccccc2OCCC2(C)N=N2)cc1 [Example 167, (E)-N-(2-(2-(3-methyl-3H-diazirin-3-yl)ethoxy)phenyl)-3-(4-(prop-2-yn-1-yloxy)phenyl)acrylamide]
[3]
  inhibition at 10 µM: 60 to 90%

## C#CCCCOc1ccc(/C=C/C(=O)Nc2ccccc2OCCC2(C)N=N2)cc1 [Example 168, (E)-N-(2-(2-(3-methyl-3H-diazirin-3-yl)ethoxy)phenyl)-3-(4-(pent-4-yn-1-yloxy)phenyl)acrylamide]
[3]
  inhibition at 10 µM: 60 to 90%

## COc1ccc(/C=C/C(=O)Nc2ccccc2C(=O)O)cc1OC [Tranilast, reference compound]
[3]; at 10 μM
  inhibition of TGFβ1-induced ECM deposition: no inhibition
